Measurements as given in ChEMBL document CHEMBL1130900, “Synthesis and structure-activity relationships of 2-pyridones: II. 8-(Fluoro-substituted pyrrolidinyl)-2-pyridones as antibacterial agents” (Bioorg Med Chem Lett, 1998).
Values after ≈ are worked out from the molar mass of the structure shown.

Assays:
Escherichia coli [1] = experiment: Effective dose against Escherichia coli JUHL in mice upon subcutaneous administration; type: functional; details: sc
Streptococcus pyogenes = experiment: Antibacterial activity against Streptococcus pyogenes EES61 was determined; type: functional
Klebsiella pneumoniae = experiment: Antibacterial activity against Klebsiella pneumoniae ATCC 8045 was determined; type: functional
Enterococcus faecium = experiment: Antibacterial activity against Enterococcus faecium ATCC 8043 was determined; type: functional
Escherichia coli [2] = experiment: Antibacterial activity against Escherichia coli JUHL was determined; type: functional; details: Escherichia coli; read-out: MIC
Klebsiella aerogenes = experiment: Antibacterial activity against Enterobacter aerogenes ATCC 13048 was determined; type: functional
[3] = Compound was tested for its effective dose against Escherichia coli JUHL in mice upon peroral administration; type: functional; details: Mus musculus, po
Staphylococcus aureus [4] = experiment: Effective dose against Staphylococcus aureus NCTC-10649M in mice upon subcutaneous administration; type: functional; details: sc
Staphylococcus aureus [5] = experiment: Antibacterial activity against Staphylococcus aureus NCTC-10649M was determined; type: functional
Streptococcus equinus = experiment: Antibacterial activity against Gram-positive Streptococcus bovis A5169 was determined; type: functional
Providencia stuartii = experiment: Antibacterial activity against Gram-negative Providencia Stuartii CMX640 was determined; type: functional
Staphylococcus aureus [6] = experiment: Antibacterial activity against Staphylococcus aureus A1775 was determined; type: functional
Staphylococcus aureus [7] = experiment: Effective dose against Staphylococcus aureus NCTC-10649M in mice upon peroral administration; type: functional; details: po
Pseudomonas aeruginosa = experiment: Antibacterial activity against Pseudomonas aeruginosa A-5007 was determined; type: functional
[8] = Compound was evaluated for maximal plasma concentration in rat upon 5 mg/kg upon oral administration; type: ADME, organism-based; set-up: dose 5 mg/kg, route oral
[9] = Oral bioavailability in rat (dose 5 mg/kg); type: ADME, organism-based; details: in vivo
DNA gyrase (bacterial) = experiment: Compound was tested for bacterial DNA gyrase activity; details: Bacteria
[10] = Streptococcus pyogenes, read-out: MIC
[11] = Klebsiella pneumoniae, ATCC 8045, read-out: MIC
[12] = Enterococcus faecium, ATCC 8043, read-out: MIC
[13] = Klebsiella aerogenes, ATCC 13048, read-out: MIC
[14] = Staphylococcus aureus, read-out: MIC
[15] = Streptococcus equinus, read-out: MIC
[16] = Providencia stuartii, read-out: MIC
[17] = Pseudomonas aeruginosa, read-out: MIC

Cc1c(N2C[C@H](CF)[C@@H](N)C2)c(F)cn2c(=O)c(C(=O)O)cc(C3CC3)c12
ED50 (Escherichia coli [1]): 0.4 mg/kg/day
MIC (Streptococcus pyogenes; [10]): 0.2 µg/mL (≈ 0.53 µM)
MIC (Klebsiella pneumoniae; [11]): 0.002 µg/mL (≈ 0.0053 µM)
MIC (Enterococcus faecium; [12]): 0.2 µg/mL (≈ 0.53 µM)
MIC (Escherichia coli [2]): 0.1 µg/mL (≈ 0.265 µM)
MIC (Klebsiella aerogenes; [13]): 0.02 µg/mL (≈ 0.053 µM)
ED50 [3]: 3 mg/kg/day
ED50 (Staphylococcus aureus [4]): 1.2 mg/kg/day
MIC (Staphylococcus aureus [5]; [14]): 0.01 µg/mL (≈ 0.0265 µM)
MIC (Streptococcus equinus; [15]): 0.39 µg/mL (≈ 1.03 µM)
MIC (Providencia stuartii; [16]): 0.78 µg/mL (≈ 2.07 µM)
MIC (Staphylococcus aureus [6]; [14]): 3.1 µg/mL (≈ 8.21 µM)
ED50 (Staphylococcus aureus [7]): 11.5 mg/kg/day
MIC (Pseudomonas aeruginosa; [17]): 0.39 µg/mL (≈ 1.03 µM)

Cc1c(N2CCC(N)(CF)C2)c(F)cn2c(=O)c(C(=O)O)cc(C3CC3)c12 (stereo not drawn)
ED50 (Escherichia coli [1]): 4.3 mg/kg/day
MIC (Streptococcus pyogenes; [10]): 0.1 µg/mL (≈ 0.265 µM)
MIC (Klebsiella pneumoniae; [11]): 0.01 µg/mL (≈ 0.0265 µM)
Cmax [8]: 600 ng/mL
MIC (Enterococcus faecium; [12]): 0.1 µg/mL (≈ 0.265 µM)
MIC (Escherichia coli [2]): 0.02 µg/mL (≈ 0.053 µM)
MIC (Klebsiella aerogenes; [13]): 0.1 µg/mL (≈ 0.265 µM)
ED50 [3]: 15.1 mg/kg/day
ED50 (Staphylococcus aureus [4]): 2.7 mg/kg/day
MIC (Staphylococcus aureus [5]; [14]): 0.02 µg/mL (≈ 0.053 µM)
MIC (Streptococcus equinus; [15]): 0.2 µg/mL (≈ 0.53 µM)
MIC (Providencia stuartii; [16]): 0.39 µg/mL (≈ 1.03 µM)
MIC (Staphylococcus aureus [6]; [14]): 0.78 µg/mL (≈ 2.07 µM)
ED50 (Staphylococcus aureus [7]): 10.3 mg/kg/day
MIC (Pseudomonas aeruginosa; [17]): 0.39 µg/mL (≈ 1.03 µM)
bioavailability [9]: 63%

Cc1c(N2C[C@@H](N)[C@H](F)C2)c(F)cn2c(=O)c(C(=O)O)cc(C3CC3)c12 (stereo in doubt; 3a) [listing 1 of 2 here]
MIC (Streptococcus pyogenes): 0.2 µg/mL (≈ 0.55 µM)
MIC (Klebsiella pneumoniae): 0.02 µg/mL (≈ 0.055 µM)
MIC (Enterococcus faecium): 0.1 µg/mL (≈ 0.275 µM)
MIC (Escherichia coli [2]): 0.02 µg/mL (≈ 0.055 µM)
MIC (Klebsiella aerogenes): 0.05 µg/mL (≈ 0.138 µM)
MIC (Staphylococcus aureus [5]): 0.02 µg/mL (≈ 0.055 µM)
MIC (Streptococcus equinus): 0.2 µg/mL (≈ 0.55 µM)
MIC (Providencia stuartii): 1.56 µg/mL (≈ 4.29 µM)
MIC (Staphylococcus aureus [6]): 0.78 µg/mL (≈ 2.15 µM)
MIC (Pseudomonas aeruginosa): 0.78 µg/mL (≈ 2.15 µM)

Cc1c(N2C[C@@H](CN)[C@H](C(F)(F)F)C2)c(F)cn2c(=O)c(C(=O)O)cc(C3CC3)c12
MIC (Streptococcus pyogenes; [10]): 0.02 µg/mL (≈ 0.0468 µM)
MIC (Klebsiella pneumoniae; [11]): 0.01 µg/mL (≈ 0.0234 µM)
MIC (Enterococcus faecium; [12]): 0.02 µg/mL (≈ 0.0468 µM)
MIC (Escherichia coli [2]): 0.02 µg/mL (≈ 0.0468 µM)
MIC (Klebsiella aerogenes; [13]): 0.05 µg/mL (≈ 0.117 µM)
ED50 (Staphylococcus aureus [4]): 0.7 mg/kg/day
MIC (Staphylococcus aureus [5]; [14]): 0.01 µg/mL (≈ 0.0234 µM)
CC50 (DNA gyrase (bacterial)): 6.5 µg/mL (≈ 15.2 µM)
MIC (Streptococcus equinus; [15]): 0.02 µg/mL (≈ 0.0468 µM)
MIC (Providencia stuartii; [16]): 1.56 µg/mL (≈ 3.65 µM)
MIC (Staphylococcus aureus [6]; [14]): 0.78 µg/mL (≈ 1.82 µM)
ED50 (Staphylococcus aureus [7]): 2.6 mg/kg/day
MIC (Pseudomonas aeruginosa; [17]): 0.39 µg/mL (≈ 0.912 µM)

Cc1c(N2C[C@@H](N)[C@H](F)C2)c(F)cn2c(=O)c(C(=O)O)cc(C3CC3)c12 (stereo in doubt; 3a) [listing 2 of 2 here]
CC50 (DNA gyrase (bacterial)): 0.7 µg/mL (≈ 1.93 µM)

Cc1c(N2C[C@H](N)[C@@H](F)C2)c(F)cn2c(=O)c(C(=O)O)cc(C3CC3)c12
ED50 (Escherichia coli [1]): > 5 mg/kg/day
MIC (Streptococcus pyogenes; [10]): 0.39 µg/mL (≈ 1.07 µM)
MIC (Klebsiella pneumoniae; [11]): 0.02 µg/mL (≈ 0.055 µM)
MIC (Enterococcus faecium; [12]): 0.39 µg/mL (≈ 1.07 µM)
MIC (Klebsiella aerogenes; [13]): 0.2 µg/mL (≈ 0.55 µM)
ED50 [3]: > 10 mg/kg/day
ED50 (Staphylococcus aureus [4]): 4.8 mg/kg/day
MIC (Staphylococcus aureus [5]; [14]): 0.05 µg/mL (≈ 0.138 µM)
MIC (Streptococcus equinus; [15]): 0.39 µg/mL (≈ 1.07 µM)
MIC (Providencia stuartii; [16]): 0.78 µg/mL (≈ 2.15 µM)
MIC (Staphylococcus aureus [6]; [14]): 1.56 µg/mL (≈ 4.29 µM)
ED50 (Staphylococcus aureus [7]): 25 mg/kg/day
MIC (Pseudomonas aeruginosa; [17]): 0.78 µg/mL (≈ 2.15 µM)

Cc1c(N2CCC(CN)(CF)C2)c(F)cn2c(=O)c(C(=O)O)cc(C3CC3)c12 (stereo not drawn)
ED50 (Escherichia coli [1]): 1.5 mg/kg/day
MIC (Streptococcus pyogenes; [10]): 0.05 µg/mL (≈ 0.128 µM)
MIC (Klebsiella pneumoniae; [11]): 0.1 µg/mL (≈ 0.255 µM)
MIC (Enterococcus faecium; [12]): 0.1 µg/mL (≈ 0.255 µM)
MIC (Escherichia coli [2]): 0.05 µg/mL (≈ 0.128 µM)
ED50 [3]: > 10 mg/kg/day
ED50 (Staphylococcus aureus [4]): 1.5 mg/kg/day
MIC (Staphylococcus aureus [5]; [14]): 0.02 µg/mL (≈ 0.0511 µM)
MIC (Streptococcus equinus; [15]): 0.1 µg/mL (≈ 0.255 µM)
MIC (Providencia stuartii; [16]): 0.78 µg/mL (≈ 1.99 µM)
MIC (Staphylococcus aureus [6]; [14]): 1.56 µg/mL (≈ 3.99 µM)
ED50 (Staphylococcus aureus [7]): 3.8 mg/kg/day
MIC (Pseudomonas aeruginosa; [17]): 0.78 µg/mL (≈ 1.99 µM)

Cc1c(N2C[C@@H](N)[C@H](F)C2)c(F)cn2c(=O)c(C(=O)O)cc(C3CC3)c12 (stereo in doubt; 3a-R,R7)
ED50 (Escherichia coli [1]): > 5 mg/kg/day
MIC (Streptococcus pyogenes; [10]): 0.2 µg/mL (≈ 0.55 µM)
MIC (Klebsiella pneumoniae; [11]): 0.02 µg/mL (≈ 0.055 µM)
MIC (Enterococcus faecium; [12]): 0.2 µg/mL (≈ 0.55 µM)
MIC (Klebsiella aerogenes): 0.2 µg/mL (≈ 0.55 µM)
ED50 [3]: > 10 mg/kg/day
ED50 (Staphylococcus aureus [4]): 4.8 mg/kg/day
MIC (Staphylococcus aureus [5]): 0.05 µg/mL (≈ 0.138 µM)
MIC (Streptococcus equinus; [15]): 0.39 µg/mL (≈ 1.07 µM)
MIC (Providencia stuartii; [16]): 1.56 µg/mL (≈ 4.29 µM)
MIC (Staphylococcus aureus [6]; [14]): 1.56 µg/mL (≈ 4.29 µM)
ED50 (Staphylococcus aureus [7]): 7.3 mg/kg/day
MIC (Pseudomonas aeruginosa; [17]): 1.56 µg/mL (≈ 4.29 µM)

Cc1c(N2CC[C@H](N)C2)c(F)cn2c(=O)c(C(=O)O)cc(C3CC3)c12 [ABT-719]
ED50 (Escherichia coli [1]): 0.1 mg/kg/day
MIC (Streptococcus pyogenes; [10]): 0.02 µg/mL (≈ 0.0579 µM)
MIC (Klebsiella pneumoniae; [11]): 0.005 µg/mL (≈ 0.0145 µM)
MIC (Enterococcus faecium; [12]): 0.02 µg/mL (≈ 0.0579 µM)
MIC (Escherichia coli [2]): 0.002 µg/mL (≈ 0.00579 µM)
MIC (Klebsiella aerogenes; [13]): 0.005 µg/mL (≈ 0.0145 µM)
ED50 [3]: 0.6 mg/kg/day
ED50 (Staphylococcus aureus [4]): 0.6 mg/kg/day
MIC (Staphylococcus aureus [5]; [14]): 0.1 µg/mL (≈ 0.29 µM)
CC50 (DNA gyrase (bacterial)): 0.03 µg/mL (≈ 0.0869 µM)
MIC (Streptococcus equinus; [15]): 0.02 µg/mL (≈ 0.0579 µM)
MIC (Providencia stuartii; [16]): 0.2 µg/mL (≈ 0.579 µM)
MIC (Staphylococcus aureus [6]; [14]): 0.78 µg/mL (≈ 2.26 µM)
ED50 (Staphylococcus aureus [7]): 3.4 mg/kg/day
MIC (Pseudomonas aeruginosa; [17]): 0.5 µg/mL (≈ 1.45 µM)
